Experimental data from patent publication US20130039928A1, “COMPOSITIONS AND METHODS FOR REVERSING CORTICOSTEROID RESISTANCE OR TREATING RESPIRATORY INFECTIONS” (priority 2010, published 2013).
Where two headings read alike, the source gives them in different places.

Key:
Pseudomonas aeruginosa = details: 0.5 mg/mouse/day nebulizer, three days, 4 hours after PA, compared to vehicle
Procedure: The efficacy of sulforaphane to improve bacterial phagocytosis and clearance in the lungs of mice exposed to cigarette smoke was determined. After 6 months or 1 week of CS or air exposure, mice were treated with sulforaphane and or vehicle (0.5 mg/mouse/day) for three consecutive days using an Aeroneb® nebulizer (Aerogen, Inc., Galway, Ireland). Mice were challenged intranasally with Pseudomonas aeruginosa 24 hours after the last dose of sulforaphane, and bacterial burden in BALF was analyzed 4 hours later.
C57BL/6J mice were housed under controlled conditions for temperature and humidity, using a 12-hour light/dark cycle. At 8 weeks of age, mice were exposed to CS for (2.5 h/day for 5 days/week) for 1 week or 6 months using a machine that produces cigarette smoke (TE-10, Teague Enterprises) and reference cigarettes (2R4F) with a total suspended particle concentration of 250 mg/m^3 as previously described (T. E. Sussan et al., Proc Natl Acad Sci USA, (Dec. 22, 2008)). Following exposure to CS, mice were inoculated with PA or NTHI at a dose of 10^3 CFU in 50 μl of PBS intranasally. […]
BAL fluid analysis and cell counts with differential staining were carried out as described previously (T. Rangasamy et al., J Clin Invest 114, 1248 (November, 2004)). […] After 24 h, the number of CFU was counted.

[1] = tested on: secretory leukocyte protease inhibitor (SLPI); details: alveolar macrophages of patients with COPD, treated with or without sulforaphane
Procedure: Human alveolar macrophages were purified from individual BAL samples by centrifugation and seeded onto 6-well tissue culture plates. After incubation for 2 h, non-adherent cells were removed and the adherent cells were incubated with R, S-sulforaphane (5 μM; LKT Laboratories, Inc., St. Paul, Minn.) and or DMSO in RPMI 1640 culture medium with 10% FBS and 1% penicillin-streptomycin (Invitrogen, Carlsbad, Calif.). After 16-20 h, adherent cells were scraped, suspended in RPMI 1640 culture media and plated onto 96-well tissue culture plates for bacterial phagocytosis and clearance assays. […] For MARCO antibody-depletion, alveolar macrophages were incubated with human anti-MARCO antibody (1 μg/ml; (Hycult, Uden, The Netherlands) for 4 hours prior to bacterial challenge.

HDAC2 = experiment: Posttranslational modification of HDAC2 in alveolar macrophages (immunoblot, DAN, biotin-switch); format: cell-based, human
Procedure: S-nitrosylation of proteins was analyzed by anti-SNO antibody, biotin switch assay, and or 2,3-diaminonapthalene (DAN) assay. […] Detail methodology is described in supplementary data.
Macrophage cell or lung tissue extracts were prepared by using 100 μL of immunoprecipitation buffer (50 mM Tris-HCl, pH 8.0, 150 mM NaCl, 1.0% Triton X-100, 0.5% NP-40, 0.1% SDS, 0.5% deoxycholate, and complete protease inhibitor cocktail) from Roche (Morristown, N.J.). The lysis mixture was incubated on ice for 15 minutes and microcentrifuged for 10 minutes at 4° C. Extracts were precleared with 20 μL protein A/G sepharose beads (a 50:50 mix) from Thermo scientific (Rockford, Ill.) and 2 μg of normal IgG. After microcentrifugation, 20 μL of protein A/G sepharose conjugated with 5 μg of antibody was used to precipitate HDAC2 (Santa Cruz Biotechnology, Santa Cruz, Calif.) overnight at 4° C. with rotation. The immune complexes were pelleted with gentle centrifugation, washed twice with 1 mL of immunoprecipitation buffer, and divided equally for the final wash for the activity assay and immunoblotting. For the HDAC assay, immunoprecipitates were resuspended in the activity assay buffer (50 mM TrisHCl, pH 8.0; 10% glycerol; 1 mM dithiothreitol; 0.1 mM EDTA, complete protease inhibitor cocktail). For HDAC2-specific western blotting, immune complexes were washed three times with the immunoprecipitation buffer and finally resuspended in Laemmli buffer for the SDS-PAGE.
For HDAC2-specific nitrosylation detection, cells were lysed in buffer (50 mM Tris-HCl, pH 8.0, 150 mM NaCl, 1% Nonidet P-40, 0.5% deoxycholic acid, 0.1% SDS). […] The pellets were resuspended in 500 μL of PBS.
This assay was performed in the dark.
The Image J program was used for densitometry analyses.

[2] = tested on: nontypeable Haemophilus influenza (NTHI); details: wild-type mice after 6 months of chronic exposure to cigarette smoke
Procedure: C57BL/6J mice were housed under controlled conditions for temperature and humidity, using a 12-hour light/dark cycle. At 8 weeks of age, mice were exposed to CS for (2.5 h/day for 5 days/week) for 1 week or 6 months using a machine that produces cigarette smoke (TE-10, Teague Enterprises) and reference cigarettes (2R4F) with a total suspended particle concentration of 250 mg/m^3 as previously described (T. E. Sussan et al., Proc Natl Acad Sci USA, (Dec. 22, 2008)). Following exposure to CS, mice were inoculated with PA or NTHI at a dose of 10^3 CFU in 50 μl of PBS intranasally. For sulforaphane administration (0.5 mg/mouse of R, S-sulforaphane in PBS), a nebulizer (Aerogen, Inc., Galway, Ireland) designed specifically for small animals was used.
BAL fluid analysis and cell counts with differential staining were carried out as described previously (T. Rangasamy et al., J Clin Invest 114, 1248 (November, 2004)). For analyzing bacterial colonization in lungs, 100 μl of BAL fluid were diluted serially in sterile 0.9% NaCl and aseptically plated and cultured on appropriate (blood [PA] or chocolate [NTHI]) agar plates. After 24 h, the number of CFU was counted.

Nrf2 = details: COPD alveolar macrophages, 5 μM for 16 h
Procedure: For inducing corticosteroid resistance, PMs were exposed to cigarette smoke condensate (CSC, 100 μg/ml; Murty Pharmaceuticals, Lexington, Ky.) for 16 h. Exposure to S-nitrosoglutathione (GSNO, 10 μM) was limited to 4 h. […] For assessing corticosteroid responsiveness, macrophages were incubated with dexamethasone (1 μM, Sigma) for 1 h followed by LPS (100 ng/ml, Sigma) for additional 4 h.
All immunoblots were performed by using protocols as described previously (Barnes, P. J., N Engl J Med 343, 269-280 (2000)). Rabbit anti-HDAC2 antibody from Santa Cruz Biotechnology (Santa Cruz, Calif.) was used at 1:500 dilutions. Rabbit anti-5-nitroso-cysteine antibody from Alpha diagnostics was used at 1:500 dilutions. Rabbit anti-nitro-tyrosine antibody from Cell Signaling Technology, was used at 1:250 dilution. Rabbit anti-ubiquitin antibody from Santa Cruz Biotechnology (Santa Cruz, Calif.) was used at 1:1000 dilutions. Rabbit anti-GR antibody from Santa Cruz Biotechnology (Santa Cruz, Calif.) was used at a dilution of 1:1000. Rabbit anti-MMP9 antibody from Sigma Aldrich was used at 1:500 dilutions. Rabbit anti-acetyl-lysine antibody from Abcam was used at 1:750 dilutions. Rabbit anti-lamin-B1 from Santa Cruz Biotechnology (Santa Cruz, Calif.) was used at 1:1000 dilutions as a loading control. The Image J program was used for densitometry analyses.
Total RNA was extracted from the cells by lysis and specific binding to a silica membrance (Qiagen RNeasy kit, Qiagen, Valencia, Calif.), and qRT-PCR was performed by using primers and probe sets for human IL-8, NQO1, GCLM, and iNOS (Assay-on-Demand, Applied Biosystems, Foster City, Calif.). A real-time fluorescent PCR system (ABI 7000 Taqman system, Applied Biosystems) was used to perform these assays. β-actin was used as the normalization control.

[3] = GSNO-exposed alveolar macrophages
[4] = nuclear immunopurified HDAC2, compared with vehicle

C[S+]([O-])CCCCN=C=S (stereo not drawn) [sulforaphane]
bacterial burden in lungs (Pseudomonas aeruginosa; 1 week CS): significantly reduced bacterial burden
bacterial burden in lungs (Pseudomonas aeruginosa; 6 months CS): significantly reduced bacterial burden
SLPI levels in cell free media [1]: greater levels of SLPI
S-nitrosylation of HDAC2 (HDAC2; 2,3-diaminonaphthalene and biotin-switch assays): reduced
levels of NO-Tyr HDAC2 (HDAC2; [3]): decreased the levels of both NO-Tyr HDAC2 and SNO-HDAC2
levels of SNO-HDAC2 (HDAC2; [3]): decreased the levels of both NO-Tyr HDAC2 and SNO-HDAC2
ability to reduce the levels of SNOHDAC2 protein (HDAC2; GSNO-exposed alveolar macrophages in the presence of buthionine sulfoximine): ablated
S-nitrosylation of HDAC2 (SNO-HDAC2) (HDAC2; anti-SNO antibody immunoblot): significantly reduced
tyrosine nitration of HDAC2 (nitrotyrosine-HDAC2) (HDAC2; immunopurified HDAC2 from alveolar macrophages, compared with vehicle): Significant reductions
serine phosphorylation of HDAC2 (HDAC2; [4]): Significant reductions
ubiquitination of HDAC2 (HDAC2; [4]): Significant reductions
bacterial colonization (NTHI) in the lungs [2]: inhibited bacterial colonization
GSH biosynthesizing enzymes (GCLC, GCLM) (Nrf2): significantly elevated
Nrf2-regulated antioxidant genes (NQO1, HO-1) (Nrf2): significantly elevated
Nrf2 nuclear protein levels (Nrf2): significantly elevated
